From patent publication US10106627B2, “Process for the preparation of polymeric biosurfactants” (priority 2014, dated 2018)

Experiment: Superoxide anion scavenging (PMS/NADH method)
Format: biochemical
Details: cell free
Method: The antioxidant activity of Microsan from Microbacterium sp. strain BS-2 and Brevisan from Brevibacillus sp. strain BS-207 in cell free system was measured by its inhibitory activity on the generation of DPPH free radicals, superoxide anions (O^2−), lipid peroxidation and erythrocyte hemolysis. The DPPH free radical scavenging assay was performed using 2,2-diphenyl-1-picrylhydrazyl (DPPH) free radical scavenging method [Ara. N. and Hasan, N. (2009) Res. J. Med. Medical Sci. 4, 107-110]. Different concentrations of Microsan and Brevisan were mixed individually with 150 μl of 160 μM methanolic solution of DPPH and incubated at 35° C. for 30 min in dark. The effective concentration (EC50) was calculated by measuring the absorbance of the samples at 517 nm. The superoxide anion scavenging was measured using phenazine methosulfate-nicotinamide adenine dinucleotide (PMS/NADH) method as previously described [Liu, F., Ooi, V. E. and Chang, S. T. (1997) Life Sci. 60, 763-771]. The lipid peroxidation assay was performed using the previously described method [Zhang, Q., Yu, P., Li, Z., Zhang, H., Xu, Z. and Li, P. (2003) J. Appl. Phycol. 15, 305-310] which is based on measuring the lipid peroxide decomposed product malondialdehyde (MDA). […] Samples were incubated at 37° C. for 30 min and the absorbance was measured at 540 nm. […]

β-D-glucuronyl-(1-2)-D-mannosyl-(1-4)-D-glucose [Microsan]
EC50 superoxide anions (O^2−) scavenging: 24.48 µg/mL
